{
  "source": "patent US7556807B2",
  "about": "“Signal peptides, nucleic acid molecules and methods for treatment of caries” (priority 2001, dated 2009)",
  "key": {"[1]": {"test_system": "S. mutans wild-type UA159", "assay": "S. mutans biofilms formed on polystyrene microtiter plates (b), SDM-glucose, safranin (first study)", "assay_type": "cell-based, Streptococcus mutans", "conditions": "5 μg/ml of peptide analog; ↓ = reduced biomass compared to biofilm grown in presence of wild-type CSP", "procedure": "Biofilms were developed in 96-well polystyrene microtiter plates. […] Wells without cells were used as blank controls. […] After the incubation, the planktonic cells were carefully removed and the plates were air dried overnight. The plates were then stained with 0.01% (wt/vol) safranin for 10 min, rinsed with sterile distilled water and air dried. Biofilms were quantified by measuring the absorbance of stained biofilms at 490 nm with a microplate reader (model 3550; Bio-Rad Laboratories, Richmond, Calif.)."}, "[2]": {"test_system": "S. mutans wild-type UA159", "assay": "S. mutans acid resistance assay (growth in THYE at pH 7.5 and pH 5.5)", "assay_type": "cell-based, Streptococcus mutans", "conditions": "5 μg/ml of peptide analog; for Growth (pH 7.5): THYE pH 7.5; for Acid resistance (pH 5.5): growth in THYE pH 5.5", "procedure": "The effect of peptides on acid tolerance was evaluated by assessment of growth in THYE at pH 7.5 and pH 5.5. Overnight S. mutans wild-type UA159 cells were diluted (1:20) with prewarmed THYE broth and incubated at 37° C. in air with 5% CO2 until an OD600 of approximately 0.4 was reached. A 20-fold dilution was made into 400 μl of either THYE pH 7.5 or THYE pH 5.5 broth containing different concentrations (0, 0.1, 0.5, 2, and 5 μg per ml) of peptide analogs and added in the individual wells of a 100-well Bioscreen C plate in triplicate. Wells without cells were used as blank controls. A Bioscreen microbiology reader (Labsystems, Helsinki, Finland) was employed to continuously grow cells and measure cell growth for 16 h at 37° C. Measurements were taken every 20 min with shaking to prevent cell aggregation."}, "[3]": {"test_system": "S. mutans comD null mutant", "assay": "Genetic transformation of S. mutans comD null mutant in presence of H1", "assay_type": "cell-based, Streptococcus mutans", "conditions": "different concentrations of H1", "description": "An S. mutans UA159 comD null mutant was constructed by a PCR-based deletion strategy involving restriction-ligation and allelic replacement as described previously (Lau et al., 2002). The primers used to construct and confirm the S. mutans comD deletion mutant were P1-HK13 (5′-[…]-3′; SEQ ID NO:52), P2-HK13 (5′-[…]-3′; SEQ ID NO:53), P3-HK13 (5′-[…]-3′; SEQ ID NO:54), P4-HK13 (5′-AGATTATCATTGGC GGAAGCG-3′; SEQ ID NO:55), Erm-19 (5′-[…]-3′; SEQ ID NO:56), and Erm-20 (5′-[…] TAGAAT-3′; SEQ ID NO:57).\nTo determine if the peptide analogs had any impact on the development of genetic competence, S. mutans UA159 wild-type cells were assayed for genetic transformation. Overnight cultures of S. mutans UA159 were diluted (1:20) with prewarmed THYE broth and incubated at 37° C. in air with 5% CO2 until an optical density (OD) of approximately 0.1 at 600 nm was reached. The culture was then divided into six aliquots containing 1 μg/ml of plasmid pDL289 and different concentrations (0, 0.1, 0.5, 2, and 5 μg per ml) of peptide analogs. […] Total recipient cells were counted by spreading serial dilutions on THYE agar plates without antibiotic. Transformation efficiency was expressed as the percentage of kanamycin resistant transformants over the total number of recipient cells."}, "[4]": {"test_system": "S. mutans comC deficient cells", "assay": "Acid resistance tolerance of S. mutans comC deficient cells with added synthetic CSP (FIG. 12)", "assay_type": "cell-based, Streptococcus mutans", "conditions": "synthetic CSP added to culture of comC mutant; compared to parent strain NG8", "procedure": "The ability of CSP [SEQ ID NO:11] to promote acid resistance tolerance is determined by measuring the cell survival rate of S. mutans when exposed to acidic pH. In one example, S. mutans are first grown in batch culture to assay acid tolerance response in ‘standard’ log- and stationary-phase cells by using a modification of methods described previously by Svensäter et al. Oral Microbiol. Immunol., 12:266-73. Mid-log-phase cells are obtained by transferring one volume of overnight culture into nine volumes (1:10) of fresh TYG medium (pH 7.5) and incubated at 37° C. with 5% CO2 for 2 hours. These cells are then collected by centrifugation at 8,000×g for 10 min and resuspended in 2 ml of fresh TYG (pH 5.5) at various cell densities as determined by O.D600. The cells are induced for acid adaptation by incubation at pH 5.5 for 2 h at 37° C. with 5% CO2. The adapted log-phase cells are then exposed to the killing pH. Killing pH is pre-determined by incubating unadapted, mid-log phase cells in TYG medium at pH values from 6.0 to 2.0. Stationary-phase cells are prepared by re-suspending late-log phase cells in TY medium (tryptone-yeast extract) without glucose. […] Adaptation of both log- and stationary-phase cells to acidic pH is determined by measuring the ability of bacterial cells to survive a killing pH for 3 h. […]"}, "[5]": {"test_system": "S. mutans comC null mutant", "conditions": "exogenous addition of synthetic CSP; Li et al., 2002; cited from earlier work"}},
  "data": [
    {"substance": "H1: S. mutans CSP analog, 4th residue removed from C′ (SGSLSTFFRLFNVSFTQALGK; D2 peptide analog)", "values": [
      {"measurement": "Bioflim formation (SDM-glucose)", "setting": "[1]", "value": "no effect"},
      {"measurement": "Growth (pH 7.5)", "setting": "[2]", "value": "no effect"},
      {"measurement": "Acid resistance (pH 5.5)", "setting": "[2]", "value": "significant decrease in cell growth"},
      {"measurement": "Effect of H1 on genetic competence in comD null mutant", "setting": "[3]", "value": "ComD-dependent process"}
    ]},
    {"substance": "SGSLSTFFRLFNRSFTQALGK (MKKTLSLKNDFKEIKTDELEIIIGGSGSLSTFFRLFNRSFTQALGK; Streptococcus mutans) [CSP, reference compound]", "values": [
      {"measurement": "Bioflim formation (SDM-glucose)", "setting": "[1]", "value": "no effect"},
      {"measurement": "Survival of low pH challenge by comC mutant", "setting": "[4]", "value": "restored the ability of the mutant to survive a low pH challenge"},
      {"measurement": "Growth (pH 7.5)", "setting": "[2]", "value": "↓growth"},
      {"measurement": "Acid resistance (pH 5.5)", "setting": "[2]", "value": "growth"},
      {"measurement": "Biofilm phenotype of comC defective mutant", "setting": "[5]", "value": "restores the wild-type phenotype"}
    ]}
  ]
}
